Results as given in paper PMC9833666, “Designing and identifying β-hairpin peptide macrocycles with antibiotic potential” (Science Advances, 2023).
Like-named read-outs stand apart in the source and are kept apart here. Bridge positions count the residues as written; N and C are the ends. Peptide text beside a SMILES is read from it.

Test system: Escherichia coli W3110
Format: cell-based
Details: for Ec W3110 MIC MH: E. coli W3110, MH medium; for Ec W3110 MIC RPMI: E. coli W3110, RPMI medium

SMILES	Ec W3110 MIC MH [mg/L]	Ec W3110 MIC RPMI [mg/L]	W3110 MIC MH (W3110) [mg/L]	W3110 MIC RPMI (W3110) [mg/L]	W3110 MIC MH (E. coli W3110, standard Mueller-Hinton broth, 37°C, 18-24 h, median of n=3) [mg/L]	W3110 MIC (W3110) [mg/L]
CC[C@H](C)[C@@H]1NC(=O)[C@H](CCCNC(=N)N)NC(=O)[C@H](C(C)C)NC(=O)[C@@H](N)CSSC[C@@H](C(=O)O)NC(=O)[C@H](C(C)C)NC(=O)[C@H](CCC(=O)O)NC(=O)[C@H](CC(C)C)NC(=O)[C@H](CO)NC(=O)[C@H](C(C)C)NC(=O)[C@H](CCCCN)NC(=O)[C@H](C(C)C)NC(=O)[C@H](CCCNC(=N)N)NC(=O)[C@H](CCCNC(=N)N)NC(=O)[C@H](CCCNC(=N)N)NC(=O)[C@H](CCCNC(=N)N)NC(=O)[C@H](CC(N)=O)NC(=O)[C@H](CC(N)=O)NC(=O)[C@H](CC(C)C)NC(=O)[C@H](CCCNC(=N)N)NC1=O [SySA-37] (H-CVRIRLNNRRRRVKVSLEVC-OH; disulfide 1-20; N-terminus and C-terminus assumed)	32	8	32	8	–	–
CC[C@H](C)[C@@H]1NC(=O)[C@H](CCCCN)NC(=O)[C@H](CC(C)C)NC(=O)CNC(=O)[C@H](CCCNC(=N)N)NC(=O)[C@H](CCCNC(=N)N)NC(=O)[C@H](CCCNC(=N)N)NC(=O)[C@H](CC(N)=O)NC(=O)[C@H](CC(N)=O)NC(=O)[C@H](CC(C)C)NC(=O)[C@H](CCCNC(=N)N)NC(=O)[C@H](C(C)C)NC(=O)[C@H](CCCNC(=N)N)NC(=O)[C@H](C(C)C)NC(=O)[C@@H](N)CSSC[C@@H](C(=O)O)NC(=O)[C@H](C(C)C)NC(=O)[C@H](CCC(N)=O)NC(=O)[C@H](CC(C)C)NC(=O)[C@H](CO)NC1=O [SySA-9] (H-CVRVRLNNRRRGLKISLQVC-OH; disulfide 1-20; N-terminus and C-terminus assumed)	128	8	–	8	128	–
CC[C@H](C)[C@@H]1NC(=O)[C@H](CCCNC(=N)N)NC(=O)[C@H](CC(C)C)NC(=O)CNC(=O)CNC(=O)CNC(=O)[C@H](CCCNC(=N)N)NC(=O)[C@H](CC(N)=O)NC(=O)[C@H](CC(N)=O)NC(=O)[C@H](CC(C)C)NC(=O)[C@H](CCCNC(=N)N)NC(=O)[C@H](C(C)C)NC(=O)[C@H](CCCNC(=N)N)NC(=O)[C@H](C(C)C)NC(=O)[C@@H](N)CSSC[C@@H](C(=O)O)NC(=O)[C@H](C(C)C)NC(=O)[C@H](CCC(N)=O)NC(=O)[C@H](CC(C)C)NC(=O)[C@H]([C@@H](C)O)NC1=O [SySA-27] (H-CVRVRLNNRGGGLRITLQVC-OH; disulfide 1-20; N-terminus and C-terminus assumed)	256	64	256	64	–	–
CC[C@H](C)[C@@H]1NC(=O)[C@H](CCCNC(=N)N)NC(=O)[C@H](C(C)C)NC(=O)CNC(=O)[C@H](CO)NC(=O)CNC(=O)CNC(=O)[C@H](CC(=O)O)NC(=O)[C@H](CC(N)=O)NC(=O)[C@H](CC(C)C)NC(=O)[C@H](CCCNC(=N)N)NC(=O)[C@H](C(C)C)NC(=O)[C@H](CCCNC(=N)N)NC(=O)[C@H](C(C)C)NC(=O)[C@@H](N)CSSC[C@@H](C(=O)O)NC(=O)[C@H](C(C)C)NC(=O)[C@H](CCC(N)=O)NC(=O)[C@H](C(C)C)NC(=O)[C@H](CO)NC1=O [SyRA-6] (H-CVRVRLNDGGSGVRISVQVC-OH; disulfide 1-20)	–	–	–	–	–	>256
